In the supplement of paper PMC8882468:

Assays:
Test in all cases: CTG-3D luminescence at 96 h relative to day-0 seeding control (ratio to day 0); higher = more growth / less cytotoxicity; PDxO 3D drug screen (set 2), 96 h, CTG-3D normalised to day-0 seeding control.
HCI-008 = tested on: HCI-008 (organoid from a HER2-enriched breast cancer xenograft)
HCI-011.E2 = tested on: HCI-011.E2 (organoid from an ER-positive breast cancer xenograft)
HCI-027 = tested on: HCI-027 (organoid from a triple-negative breast cancer xenograft)
HCI-025 = tested on: HCI-025 (organoid from a breast cancer xenograft)

Cc1c(CN2CCN(C(=O)[C@H](C)O)CC2)sc2c(N3CCOCC3)nc(-c3cnc(N)nc3)nc12 [apitolisib]
CTG-3D luminescence at 96 h
Details	12.5 pM	0.00025 µM	0.005 µM	0.1 µM	1 µM	10 µM	100 µM	625 fM
HCI-008, days in culture: 325	1.41	2	1.65	1.78	0.742	0.507	0.435	1.77
HCI-008, days in culture: 340	1.4	1.81	1.5	0.702	0.415	–	0.351	1.52
HCI-008, days in culture: 354	1.55	1.16	2.04	1.34	0.285	0.344	0.491	1.32
HCI-008, days in culture: 382	1.87	1.72	0.949	0.687	0.13	0.258	0.331	1.49
HCI-011.E2, days in culture: 74	2.37	2.08	1.85	1.24	0.177	0.0892	0.218	2.23
HCI-025, days in culture: 175	1.49	1.72	1.53	1.89	0.73	0.467	0.419	1.16
HCI-025, days in culture: 189	1.77	1.49	1.66	1.41	0.518	0.179	0.121	2.67
HCI-025, days in culture: 212	2.2	3.51	2.34	0.777	0.534	0.218	0.139	0.788
HCI-025, days in culture: 224	2.45	2.02	2.09	1.35	0.679	0.351	0.267	2
HCI-027, days in culture: 145	1.36	2	1.85	1.14	0.404	0.297	0.262	1.64
HCI-027, days in culture: 158	2.21	2.37	2.99	2.07	0.609	1.12	0.342	6.72
HCI-027, days in culture: 164	1.35	2.18	2.6	1.92	0.894	0.441	0.389	1.48
HCI-027, days in culture: 176	3.68	2.63	1.06	1.66	0.9	0.431	0.271	1.29
HCI-027, days in culture: 186	1.37	1.93	1.13	0.973	0.319	0.706	0.112	2.34

HCI-011.E2
Details	CTG-3D luminescence at 96 h
12.5 pM	1.62
0.00025 µM	1.71
0.005 µM	1.3004
0.1 µM	0.978
1 µM	0.232
10 µM	0.17
100 µM	0.377
625 fM	1.89

CS(=O)(=O)CCNCc1ccc(-c2ccc3ncnc(Nc4ccc(OCc5cccc(F)c5)c(Cl)c4)c3c2)o1 [lapatinib]
CTG-3D luminescence at 96 h
Details	12.5 pM	0.00025 µM	0.005 µM	0.1 µM	1 µM	10 µM	100 µM	625 fM
HCI-008, days in culture: 325	1.68	1.81	1.73	3.2	2.32	0.898	0.0242	1.5
HCI-008, days in culture: 340	1.22	2.1	1.96	1.35	2.47	–	0.0374	1.39
HCI-008, days in culture: 354	1.62	1.04	2.27	1.42	1.52	0.935	0.00653	1.13
HCI-008, days in culture: 382	1.61	1.47	1.81	1.52	1.25	0.425	0.00105	1.22
HCI-011.E2, days in culture: 74	2.75	2.14	2.07	2.34	1.66	0.607	-0.00505	2.76
HCI-025, days in culture: 175	1.92	2.05	1.45	2.22	2.73	1.66	0.00817	1.88
HCI-025, days in culture: 189	1.99	2.19	1.58	3.08	1.26	0.872	0.00432	2.46
HCI-025, days in culture: 212	1.59	3.22	4.13	3.86	1.17	0.527	0.00417	1.69
HCI-025, days in culture: 224	2.14	1.93	1.8	1.82	1.84	0.896	0.000609	1.83
HCI-027, days in culture: 145	1.6	2.25	1.81	1.29	0.739	0.0785	0.00359	2.05
HCI-027, days in culture: 158	1.68	2.65	3.39	2.02	2.72	0.902	0.00689	5.17
HCI-027, days in culture: 164	2.91	1.7	1.91	1.36	1.57	0.126	0.00219	1.64
HCI-027, days in culture: 176	4.02	2.45	1.33	2.41	1.57	0.0427	0.00427	1.78
HCI-027, days in culture: 186	1.46	2.11	2.88	2.74	0.49	0.0763	0.00176	2.77

HCI-011.E2
Details	CTG-3D luminescence at 96 h
12.5 pM	1.6
0.00025 µM	1.63
0.005 µM	1.26
0.1 µM	1.72
1 µM	1.57
10 µM	0.982
100 µM	0.0218
625 fM	2.23
